In patent publication US20250313574A1, “SIALIC ACID DERIVATIVES AND METHODS OF USING SAME” (EISAI R&D MANAGEMENT CO., LTD., priority 2022, published 2025):

Legend:
[1] = molecular target: Recombinant Human Siglec-3/CD33 protein (His-CD33) (Homo sapiens (Human), UniProt P20138); assay: Differential scanning fluorimetry (DSF) thermal shift assay; assay type: binding
Protocol: In the DSF assay, as the temperature increases, the protein gets gradually unfolded, exposing hydrophobic regions in which a fluorescent dye binds causing the fluorescence signal to increase. The midpoint of the unfolding transitions is called the thermal melt (Tm) or denaturation temperature and the Tm was defined as the peak apex in the derivative curve. Here, the Tm temperature of CD33 in the presence and absence of A-001 at a concentration of 50 μM was examined.
Recombinant Human Siglec-3/CD33 protein was purchased from Acros (catalog no. CD3-H5226) and reagents used in this study are shown in the Table 1 below.
Lyophilized CD33 protein was received in 1 mg aliquots from Acros. The protein was diluted with 2.5 mL of sterile water to a concentration of 400 μg/mL (14.5 μM), aliquoted into 138 μL aliquots and stored as at −20° C. On the day of analysis, the protein was thawed and […] solution was diluted to […] using buffer containing 133 mM NaCl, 133 mM phosphate buffered solution and 13.9× Sypro Orange dye in water in a quantity to cover the amount of samples tested on the day of the analysis.
200 μM stock solutions of A-001 containing 0.2% DMSO in water was supplied by compound management in a 384-well plate format.
Sample matrix were prepared by adding 7.5 μL of the protein buffer stock solution followed by addition of 2.5 μL of the 200 μM compound solutions in 384-well PCR plates to give a final volume of 10 μL per well consisting of 0.5 μM CD33 protein, 100 mM phosphate buffered solution pH 7.4, 100 mM NaCl, 10× SYPRO orange dye and 50 μM compound concentration (final DMSO concentration ˜0.2%). Using the Applied Biosystems® Protein Thermal Shift software (algorithm version 1.3.), the denaturation temperature or thermal melt (Tm) of the unbound and ligand bound CD33 protein was automatically assigned and the difference in thermal melt (ΔTm D) was calculated using the derivative curve by the Protein Thermal Shift software.
Recombinant human CD33 protein (0.5 μM) was incubated under buffered conditions in the presence of SYPRO orange dye, a temperature gradient was applied and a thermogram was produced by monitoring the fluorescence. The Tm was defined as the peak apex in the derivative curve in the study. […] Addition of […] of A-001 (Blue lines) to the CD33 protein induced significant Tm increases (ΔTm D) of 12.2±0.7° C.

[2] = molecular target: Recombinant human CD33 protein (Homo sapiens (Human), UniProt P20138); assay: CD33 competitive binding assay for HTS drug screen (fluorescent multivalent sialic acid probe)
Chain of Recombinant human CD33 protein (P20138 18-259): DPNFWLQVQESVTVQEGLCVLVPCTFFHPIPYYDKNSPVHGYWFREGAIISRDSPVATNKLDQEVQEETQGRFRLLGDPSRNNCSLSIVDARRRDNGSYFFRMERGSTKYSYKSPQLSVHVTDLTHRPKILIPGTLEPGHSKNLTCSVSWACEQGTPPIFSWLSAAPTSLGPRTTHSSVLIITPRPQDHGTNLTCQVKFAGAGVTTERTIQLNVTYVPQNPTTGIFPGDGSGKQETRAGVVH
Protocol: This is a competitive binding assay that uses recombinant CD33 immobilized to a plate and a fluorescently-labeled multivalent sialic acid analog as a probe. Binding of drug to the site on CD33 to which sialic acid binds is detected by reduced binding of the fluorescent probe. Recombinant human CD33 protein (for example Acro Biosystems cat #CD3-H5257) was added at a concentration of 10 μg/ml in 20 mM acetate buffer (pH5.5) to a black plastic plate (Corning 4510) and allowed to incubate overnight at 4° C. The next day, the wells were washed 3 times with PBS containing 0.02% Tween-20. This was followed by a 30-minute incubation with PBS containing 0.2% Tween-20 and 0.5% BSA to block non-specific binding to the well. This buffer is removed and replaced with 10 μl of the same buffer, which is also used as the assay buffer. The fluorescent multivalent sialic acid probe was prepared as a 4× concentration as follows. A biotinylated sialic acid analog A-375 was mixed with biotin-4-Fluorescein isothiocyanate (biotin-4-FITC) at a 3:1 molar ratio with final concentrations (4× stock) of 60 μM A-375 and 20 μM biotin-4-FITC. After these were mixed, 20 μM of neutravidin was added, which should form complexes consisting of neutravidin, fluorescein and sialic acid with an average complex consisting of 1 neutravidin, 1 FITC and 3 sialic acid analogs. The multimerization of the sialic acid analog is critical to the assay and improves the affinity of the sialic acid analog several orders of magnitude. A test compound, for example A-001, is added at 5 μl to the 10 μl assay buffer already in the well. After a brief incubation, 5 μl of the 4× stock solution of sialic acid complexes was added. The final concentration of the complexes was therefore 5 μM neutravidin, 15 μM A-375 and 5 μM FITC. The plate was incubated at room temperature for 30 mins and then washed with PBS containing 0.2% Tween-20. Binding of the sialic acid complex is very stable, with an off-rate of several days. Bound complex was then detected using a standard plate reader to quantify FITC fluorescence.

[3] = thermal melt shift of 0.5 μM CD33 protein with 50 μM compound
[4] = difference in thermal melt of CD33 protein (0.5 μM) with 50 μM compound

Chain of Recombinant Human Siglec-3/CD33 protein (His-CD33) (P20138 18-259): as above

Structure (SMILES): CC(=O)N[C@H]1[C@H]([C@H](O)[C@H](O)CNC(=O)c2cc(C)c(O)c(C)c2)O[C@@](CCN2CCOC[C@@]23CCN(C(=O)NC(C)C(F)(F)F)C3)(C(=O)O)C[C@@H]1O (stereo partly drawn) [A-044]
- DSF (dTmD) [1, 3]: 11.5
- EC50 [2]: 19 nM

Structure (SMILES): Cc1cc2cc(C)c1OCCNC(=O)CCCCCCCC[C@]1(C(=O)O)C[C@H](O)[C@@H](NC(=O)Cn3cc(C4CCCCC4)nn3)[C@@H](O1)[C@H](O)[C@H](O)CNC2=O [A-347]
- DSF (dTmD) [1, 4]: 3.6 °C
- EC50 [2]: 19000 nM

Structure (SMILES): CNC(=O)c1c(C)cc(C(=O)NC[C@@H](O)[C@@H](O)[C@@H]2O[C@@](CCN3CCOC[C@@]34CCN(C(=O)OC(C)(C)C)C4)(C(=O)O)C[C@H](O)[C@H]2NC(C)=O)cc1C [A-164]
- DSF (dTmD) [1, 3]: 5.3
- EC50 [2]: 1560 nM

Structure (SMILES): CC(=O)N[C@H]1[C@H]([C@H](O)[C@H](O)CNC(=O)c2cc(C)c(O)c(C)c2)O[C@@](C[C@@H]2COC[C@]3(CCN(C(=O)OC(C)(C)C)C3)N2)(C(=O)O)C[C@@H]1O [A-229]
- DSF (dTmD) [1, 4]: 13.0 °C
- EC50 [2]: 22 nM

Structure (SMILES): Cc1cc(C(=O)NC[C@@H](O)[C@@H](O)[C@@H]2O[C@@](C/C=C/c3cccc(CNC(=O)c4cccc(Cl)c4)c3)(C(=O)O)C[C@H](O)[C@H]2NC(=O)Cn2cc(C3CCCCC3)nn2)cc(C)c1O [A-262]
- DSF (dTmD) [1, 4]: 1.9 °C
- EC50 [2]: 6030 nM

Structure (SMILES): CC(=O)N[C@H]1[C@H]([C@H](O)[C@H](O)CNC(=O)c2cc(Cl)c(O)c(Cl)c2)O[C@@](CC2OC(C)(C)O[C@@H]2c2cccc(C(=O)NCc3ccccc3)c2)(C(=O)O)C[C@@H]1O (stereo partly drawn) [A-322]
- DSF (dTmD) [1, 4]: 3.0 °C
- EC50 [2]: 7790 nM

Structure (SMILES): CC(=O)N[C@H]1[C@H]([C@H](O)[C@H](O)CNC(=O)c2cc(C)c(O)c(C)c2)O[C@@](CCN2CCOC[C@@]23CCN(C(=O)OC(C)(C)C)C3)(C(=O)O)C[C@]1(C)O [A-200]
- DSF (dTmD) [1, 4]: 8.7 °C
- EC50 [2]: 131 nM

Structure (SMILES): CC(=O)N[C@H]1[C@H]([C@H](O)[C@H](O)CNC(=O)c2cc(C)c(O)c(C)c2)O[C@@](CCN2CCCC23CN(C(=O)OC(C)(C)C)C3)(C(=O)O)C[C@@H]1O [A-017]
- DSF (dTmD) [1, 3]: 1.2
- EC50 [2]: 1560 nM

Structure (SMILES): CC(=O)N[C@H]1[C@H]([C@H](O)[C@H](O)CNC(=O)c2cc(C)c(C(N)=O)c(C)c2)O[C@@](CCN2CCOC[C@@]23CCN(C(=O)OC(C)(C)C)C3)(C(=O)O)C[C@@H]1O [A-141]
- DSF (dTmD) [1, 3]: 7.0
- EC50 [2]: 350 nM

Structure (SMILES): CC(=O)N[C@H]1[C@H]2O[C@](C(=O)O)(C/C=C/COC[C@H](NC(=O)C3CCCOC3)COCCOc3c(C)cc(cc3C)C(=O)NC[C@@H](O)[C@H]2O)C[C@@H]1O (stereo partly drawn) [A-339]
- DSF (dTmD) [1, 4]: 4.4 °C
- EC50 [2]: 5910 nM

Structure (SMILES): Cc1cc(C(=O)NC[C@@H](O)[C@@H](O)[C@@H]2O[C@@](C/C=C/c3cccc(CNC(=O)c4cn[nH]c4)c3)(C(=O)O)C[C@H](O)[C@H]2NC(=O)Cn2cc(C3CCCCC3)nn2)cc(C)c1O [A-277]
- DSF (dTmD) [1, 4]: 4.3 °C
- EC50 [2]: 10200 nM

Structure (SMILES): CC(=O)N[C@H]1[C@H]([C@H](O)[C@H](O)CNC(=O)c2cc(C)c(O)c(C)c2)O[C@@](CCN2CCOC[C@@]23CCN(C(=O)N(C)C)C3)(C(=O)O)C[C@@H]1O [A-064]
- DSF (dTmD) [1, 3]: 3.5
- EC50 [2]: 3500 nM

Structure (SMILES): CC(=O)N[C@H]1[C@H]([C@H](O)[C@H](O)CNC(=O)c2cc(C)c(O)c(C)c2)O[C@@](CCN2CCOC[C@@]23CCN(C(=O)N2CCCC2)C3)(C(=O)O)C[C@@H]1O [A-062]
- DSF (dTmD) [1, 3]: 7.2
- EC50 [2]: 833 nM

Structure (SMILES): Cc1cc2cc(C)c1OCCOC[C@@H](NC(=O)C1CCCOC1)COCCCC[C@]1(C(=O)O)C[C@H](O)[C@@H](NC(=O)Cn3cc(C4CCCCC4)nn3)[C@@H](O1)[C@H](O)[C@H](O)CNC2=O (stereo partly drawn) [A-340]
- DSF (dTmD) [1, 4]: 4.22 °C
- EC50 [2]: 3500 nM

Structure (SMILES): CC(=O)N[C@H]1[C@H]([C@H](O)[C@H](O)CNC(=O)c2cc(C)c(O)c(C)c2)O[C@@](CC2OC(C)(C)O[C@H]2c2ccc(F)c(N3CCCC3=O)c2)(C(=O)O)C[C@@H]1O (stereo partly drawn) [A-317]
- DSF (dTmD) [1, 4]: 6.5 °C
- EC50 [2]: 920 nM

Structure (SMILES): CC(=O)N[C@H]1[C@H]([C@H](O)[C@H](O)CNC(=O)c2cc(C)c(O)c(C)c2)O[C@@](C/C=C/c2cnc(CNC(=O)C3CCCOC3)s2)(C(=O)O)C[C@@H]1O (stereo partly drawn) [A-294]
- DSF (dTmD) [1, 4]: 4.2 °C
- EC50 [2]: 4610 nM

Structure (SMILES): C/C=C/C=C/C(=O)NC[C@@H](O)[C@@H](O)[C@@H]1O[C@@](CCN2CCOC[C@@]23CCN(C(=O)OC(C)(C)C)C3)(C(=O)O)C[C@H](O)[C@H]1NC(C)=O [A-163]
- DSF (dTmD) [1, 3]: 5.7
- EC50 [2]: 700 nM

Structure (SMILES): Cc1cc(C(=O)NC[C@@H](O)[C@@H](O)[C@@H]2O[C@@](OC3CCCCC3NC(=O)Cn3cc(-c4ccccc4)nn3)(C(=O)O)C[C@H](O)[C@H]2NC(=O)Cn2cc(C3CCCCC3)nn2)cc(C)c1O (stereo partly drawn) [A-333]
- DSF (dTmD) [1, 4]: 4.5 °C
- EC50 [2]: 12200 nM

Structure (SMILES): CC(=O)N[C@H]1[C@H]([C@H](O)[C@H](O)CNC(=O)c2cc(C)c(O)c(C)c2)O[C@@](CCN2C[C@H](C)OC[C@@]23CCN(C(=O)OC(C)(C)C)C3)(C(=O)O)C[C@@H]1O [A-005]
- DSF (dTmD) [1, 3]: 14.1
- EC50 [2]: 7 nM

Structure (SMILES): Cc1cc(C(=O)NC[C@@H](O)[C@@H](O)[C@@H]2O[C@@](C/C=C/c3cccc(CNC(=O)CC4CCOCC4)c3)(C(=O)O)C[C@H](O)[C@H]2NC(=O)Cn2cc(C3CCCCC3)nn2)cc(C)c1O [A-274]
- DSF (dTmD) [1, 4]: 5.7 °C
- EC50 [2]: 4700 nM

Structure (SMILES): CC(=O)N[C@H]1[C@H]([C@H](O)[C@H](O)CNC(=O)c2cc(C)c(O)c(C)c2)O[C@@](C/C=C/c2cccc(CNC(=O)c3ccc(NC(C)(C)C)cc3)c2)(C(=O)O)C[C@@H]1O [A-257]
- DSF (dTmD) [1, 4]: 5.9 °C
- EC50 [2]: 1600 nM

Structure (SMILES): COc1c(C)cc(C(=O)NC[C@@H](O)[C@@H](O)[C@@H]2O[C@@](CCN3CCOC[C@@]34CCN(C(=O)OC(C)(C)C)C4)(C(=O)O)C[C@H](O)[C@H]2NC(C)=O)cc1C [A-118]
- DSF (dTmD) [1, 3]: 12.1
- EC50 [2]: 60 nM

Structure (SMILES): CC(=O)N[C@H]1[C@H]([C@H](O)[C@H](O)CNC(=O)c2ccc(C(F)(F)F)c(C(F)(F)F)c2)O[C@@](CCN2CCOC[C@@]23CCN(C(=O)OC(C)(C)C)C3)(C(=O)O)C[C@@H]1O [A-167]
- DSF (dTmD) [1, 3]: 7.9
- EC50 [2]: 3340 nM

Structure (SMILES): CC(=O)NC1[C@H]([C@H](O)[C@H](O)CNC(=O)c2cc(C)c(O)c(C)c2)O[C@@](CC(=O)N2CCOC[C@]23CCN(C(=O)OC(C)(C)C)C3)(C(=O)O)C[C@@H]1O (stereo partly drawn) [A-222]
- DSF (dTmD) [1, 4]: 9.3 °C

Structure (SMILES): COC(=O)[C@@]1(CCN2CCOC[C@@]23CCN(C(=O)OC(C)(C)C)C3)C[C@H](O)[C@@H](NC(C)=O)[C@H]([C@H](O)[C@H](O)CNC(=O)c2cc(C)c(O)c(C)c2)O1 [A-002]
- DSF (dTmD) [1, 3]: −0.3
